Columns and labels:
[1] = In vitro dissolution test (paddle method); type: physicochemical; conditions: cumulative in vitro dissolution rate, 0.1 N HCl and 10 mM SDS, 37° C., 50 rpm
Protocol: The dissolution medium was a solution of 0.1 N hydrochloric acid (HCl) and 10 mM sodium dodecyl sulfonate (SDS). The instrument used in the test was RC-6 dissolution rate apparatus (Tianjin). The instrument parameters were set to 37° C., 50 rpm, the paddle method. To each dissolution vessel was added 900 ml of dissolution medium followed by initiating the instrument. When the temperature of the medium in each vessel reached 37° C., corresponding testing sample was added. One ml of sample solution was taken out at time points of 10, 20, 40, 60, 90, 120, 180, 240 and 270 minute respectively, and then 1 ml of dissolution medium was added back to supplement the vessel volume. The sample solutions collected from dissolution testing was passed through a 0.45 μm filter and the filtrate was analyzed by HPLC (Agilent, 1260) to determine the amount of DQ. An isocratic mobile phase of 80% ethanol and 20% water and a wavelength 260 nm were chosen for HPLC analysis.

[2] = Thermogravimetric analysis; type: physicochemical; conditions: at 250.5° C., heating rate 10° C./min, nitrogen
Protocol: The pure DQ was weighed for thermogravimetric analysis. The instruments used in the analysis included a balance with 0.0001 accuracy (Sartorius, available from Sartorius Scientific Instruments, Model: BSA124S) and a thermogravimetric analyzer (NETZSCH, Model: TG209F1, Germany).
Detection conditions, nitrogen: 20 mL/min, scanning procedures: temperature was increased to 350° C. from room temperature, heating rate: 10° C./min; detection was performed based on the General Rules for Thermal Analysis JY/T014-1996.

[3] = tested on: Plasmodium berghei ANKA; assay: In vivo efficacy experiment, mice inoculated with sporozoites; conditions: NIH female mice, after 21 days; DQ 3, 10, 30 mg/kg; primaquine 30 mg/kg
Protocol: The NIH female mice used for the experiment were raised at least for 7 days after arrival. At the start of experiment, the mice were 7 weeks old. Only one mouse was housed in each cage maintained in a room with a temperature range of 18 to 26° C., a relative humidity of 34% to 68% in a 12/12 h light-dark cycle. Food and water were provided ad libitum during quarantine and throughout the study. This experiment was carried out in strict accordance with the relevant animal testing regulations (Guide for the Care and Use of Laboratory Animals, NRC publication, 2011 edition). The DQ suspension used in the animal experiment was from the product of Example 1, prepared with saline and subjected to ultrasonic treatment for 5 minutes. […] The detection of Plasmodium parasitemia was performed as follows: conventional method was used to count red blood cells per mm^3 of blood in that a thin film of blood was prepared and stained with 3% Giemsa for 20 minutes; and then the number of infected red blood cells per 1000 red blood cells was counted under oil microscope to obtain erythrocyte infected rate (EIR, %o). Survival rate was calculated on day 22 post-infection.
The dosage of product of Example 1 was calculated based on decoquinate mg/kg body weight, the negative control group used was saline, and the positive control group used 30 mg primaquine per kg body weight. […]

With CCCCCCCCCCOc1cc2c(O)c(C(=O)OCC)cnc2cc1OCC [Pure DQ, Decoquinate] the “Dissolved at 60 min” value ([1]; 60 min) was 6.87, the “Dissolved at 90 min” value ([1]; 90 min) was 14.60 and the “amount of DQ remaining by weight in thermogravimetric analysis” value [2] was 99 % by weight.
For COc1cc(NC(C)CCCN)c2ncccc2c1 (stereo not shown) [primaquine], the animal survival [3] was “all animals survived”.

Reference: patent publication US10265270B2, “Solid dispersion of decoquinate, a preparation process and its application” (GUANGZHOU CAS LAMVAC BIOTECH CO., LTD., priority 2015, dated 2019)
